These results are taken from patent US12590070B2, “Adamantane derivatives as inhibitors of focal adhesion kinase” (SAMJIN PHARMACEUTICAL CO., LTD., priority 2019, dated 2026).

A word on the IC50: it is the concentration at which inhibition is half-maximal.

For data set [1] the following is noted: preclinical study; cited from earlier work.
In another data set the target is T1, InsR (Homo sapiens, UniProt P06213).
T1 construct: purchased Promega V9401
Description: ADP-Glo Kinase Assay, InsR. In kind it is biochemical. As to conditions: ADP-Glo Kinase Assay Kit. As for the experimental part:
(§1) Briefly, a kinase test was performed and quantified according to the manufacturer's instructions after treating the adamantane derivative compound of the present invention by using the ADP-Glo™ Kinase Assay Kit (FAK, Promega, V1971; Pyk2, Promega, V4083; InsR, Promega, V9401) containing each kinase of Promega.
(In ADP-Glo the light output rises with the ADP produced.)

Data set [2] addresses T2, FAK (Homo sapiens, UniProt Q05397). Put plainly: ADP-Glo Kinase Assay, FAK. The data set is classed as biochemical. As to conditions: ADP-Glo Kinase Assay Kit. Also noted: purchased Promega V1971. As for the experimental part:
as §1

The target in data set [3] is T2, FAK. Description: FAK [pY397] ELISA in MDA-MB-231 cells. In kind it is cell-based. Also on record: endogenous in cells; host or cells: MDA-MB-231. As to conditions: MDA-MB-231, treated for one hour, Table 2; read-out: FAK inhibitory activity (IC50). Here is the method:
Briefly, an enzyme-linked immunosorbent assay test was performed according to the manufacturer's instructions by using the FAK (Phospho) [pY397] Human ELISA Kit (Thermo Fisher Scientific, KH00441) after dispensing 1×10^6 MDA-MB-231 cells into each well of a 6-well plate, inducing cell stabilization for 24 hours, and treating each compound at different concentrations (o, 1, 5, 10, 50, 100, 500, 1000 nM) for one hour.
In general terms: An ELISA detects its analyte on a solid surface through an enzyme-linked reagent.

The next data set has as its target T3, Pyk2 (Homo sapiens, UniProt Q14289).
T3 construct: purchased Promega V4083
Put plainly: ADP-Glo Kinase Assay, Pyk2. In kind it is biochemical. As to conditions: ADP-Glo Kinase Assay Kit. As for the experimental part:
as §1

T1 sequence (P06213 28-1382): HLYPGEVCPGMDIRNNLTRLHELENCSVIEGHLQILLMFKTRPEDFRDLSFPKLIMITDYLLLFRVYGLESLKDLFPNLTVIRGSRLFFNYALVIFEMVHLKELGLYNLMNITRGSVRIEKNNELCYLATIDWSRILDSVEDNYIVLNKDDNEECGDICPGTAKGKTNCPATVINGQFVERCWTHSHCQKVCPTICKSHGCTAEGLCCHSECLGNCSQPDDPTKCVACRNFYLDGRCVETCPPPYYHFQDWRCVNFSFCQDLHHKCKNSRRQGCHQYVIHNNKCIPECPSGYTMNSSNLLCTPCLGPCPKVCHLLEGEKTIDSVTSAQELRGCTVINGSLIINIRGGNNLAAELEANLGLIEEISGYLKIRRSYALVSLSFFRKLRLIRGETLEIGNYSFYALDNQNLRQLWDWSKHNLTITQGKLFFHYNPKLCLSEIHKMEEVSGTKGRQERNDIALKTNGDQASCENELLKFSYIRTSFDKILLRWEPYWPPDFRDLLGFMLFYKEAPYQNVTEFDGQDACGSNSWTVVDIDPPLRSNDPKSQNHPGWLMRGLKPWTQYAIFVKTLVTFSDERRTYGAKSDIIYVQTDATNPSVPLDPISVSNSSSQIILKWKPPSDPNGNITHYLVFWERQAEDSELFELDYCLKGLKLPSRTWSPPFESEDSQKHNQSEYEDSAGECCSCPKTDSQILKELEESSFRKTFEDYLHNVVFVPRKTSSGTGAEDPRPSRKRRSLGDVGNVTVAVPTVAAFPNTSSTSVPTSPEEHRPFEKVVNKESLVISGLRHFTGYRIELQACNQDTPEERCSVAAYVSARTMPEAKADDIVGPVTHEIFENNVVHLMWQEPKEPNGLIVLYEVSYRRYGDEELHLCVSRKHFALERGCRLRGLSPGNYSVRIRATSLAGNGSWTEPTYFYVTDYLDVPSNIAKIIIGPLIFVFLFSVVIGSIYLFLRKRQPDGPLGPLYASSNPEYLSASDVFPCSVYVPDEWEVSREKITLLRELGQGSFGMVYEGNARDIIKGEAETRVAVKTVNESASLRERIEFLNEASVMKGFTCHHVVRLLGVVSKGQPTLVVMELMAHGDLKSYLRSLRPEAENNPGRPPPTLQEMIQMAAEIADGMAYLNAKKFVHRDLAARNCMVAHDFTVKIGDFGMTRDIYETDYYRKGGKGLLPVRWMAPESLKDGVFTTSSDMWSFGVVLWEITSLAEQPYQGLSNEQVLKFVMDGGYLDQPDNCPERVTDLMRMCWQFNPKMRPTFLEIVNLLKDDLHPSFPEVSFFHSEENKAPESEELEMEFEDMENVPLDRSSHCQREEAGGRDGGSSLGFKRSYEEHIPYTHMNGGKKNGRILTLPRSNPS
T2 sequence (Q05397 whole entry): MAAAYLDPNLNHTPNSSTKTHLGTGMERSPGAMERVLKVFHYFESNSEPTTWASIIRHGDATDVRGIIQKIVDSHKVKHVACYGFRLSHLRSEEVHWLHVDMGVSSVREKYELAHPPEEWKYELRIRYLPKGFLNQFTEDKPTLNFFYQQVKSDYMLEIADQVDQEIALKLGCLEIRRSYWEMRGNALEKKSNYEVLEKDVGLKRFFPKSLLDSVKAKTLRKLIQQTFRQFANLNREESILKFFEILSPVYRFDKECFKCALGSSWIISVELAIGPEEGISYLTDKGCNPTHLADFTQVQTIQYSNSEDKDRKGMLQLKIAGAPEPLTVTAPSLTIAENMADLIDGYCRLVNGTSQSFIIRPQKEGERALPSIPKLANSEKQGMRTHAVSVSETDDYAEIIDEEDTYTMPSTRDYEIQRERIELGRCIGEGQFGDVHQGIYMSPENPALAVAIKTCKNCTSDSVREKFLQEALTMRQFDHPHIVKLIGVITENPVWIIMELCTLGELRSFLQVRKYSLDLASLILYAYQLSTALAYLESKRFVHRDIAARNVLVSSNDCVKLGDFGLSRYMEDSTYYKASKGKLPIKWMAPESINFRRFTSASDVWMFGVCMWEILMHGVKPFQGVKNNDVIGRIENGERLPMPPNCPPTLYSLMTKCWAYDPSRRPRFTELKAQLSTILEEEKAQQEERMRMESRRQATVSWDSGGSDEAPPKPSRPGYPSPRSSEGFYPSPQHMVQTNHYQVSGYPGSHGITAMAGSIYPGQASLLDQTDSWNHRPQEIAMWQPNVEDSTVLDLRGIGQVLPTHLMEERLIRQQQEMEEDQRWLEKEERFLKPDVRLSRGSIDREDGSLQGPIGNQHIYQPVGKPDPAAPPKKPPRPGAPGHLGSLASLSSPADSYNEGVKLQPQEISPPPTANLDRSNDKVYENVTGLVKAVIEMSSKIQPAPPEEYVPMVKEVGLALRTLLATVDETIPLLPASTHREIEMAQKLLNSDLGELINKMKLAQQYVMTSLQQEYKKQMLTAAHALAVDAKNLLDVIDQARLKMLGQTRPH
T3 sequence (Q14289 whole entry): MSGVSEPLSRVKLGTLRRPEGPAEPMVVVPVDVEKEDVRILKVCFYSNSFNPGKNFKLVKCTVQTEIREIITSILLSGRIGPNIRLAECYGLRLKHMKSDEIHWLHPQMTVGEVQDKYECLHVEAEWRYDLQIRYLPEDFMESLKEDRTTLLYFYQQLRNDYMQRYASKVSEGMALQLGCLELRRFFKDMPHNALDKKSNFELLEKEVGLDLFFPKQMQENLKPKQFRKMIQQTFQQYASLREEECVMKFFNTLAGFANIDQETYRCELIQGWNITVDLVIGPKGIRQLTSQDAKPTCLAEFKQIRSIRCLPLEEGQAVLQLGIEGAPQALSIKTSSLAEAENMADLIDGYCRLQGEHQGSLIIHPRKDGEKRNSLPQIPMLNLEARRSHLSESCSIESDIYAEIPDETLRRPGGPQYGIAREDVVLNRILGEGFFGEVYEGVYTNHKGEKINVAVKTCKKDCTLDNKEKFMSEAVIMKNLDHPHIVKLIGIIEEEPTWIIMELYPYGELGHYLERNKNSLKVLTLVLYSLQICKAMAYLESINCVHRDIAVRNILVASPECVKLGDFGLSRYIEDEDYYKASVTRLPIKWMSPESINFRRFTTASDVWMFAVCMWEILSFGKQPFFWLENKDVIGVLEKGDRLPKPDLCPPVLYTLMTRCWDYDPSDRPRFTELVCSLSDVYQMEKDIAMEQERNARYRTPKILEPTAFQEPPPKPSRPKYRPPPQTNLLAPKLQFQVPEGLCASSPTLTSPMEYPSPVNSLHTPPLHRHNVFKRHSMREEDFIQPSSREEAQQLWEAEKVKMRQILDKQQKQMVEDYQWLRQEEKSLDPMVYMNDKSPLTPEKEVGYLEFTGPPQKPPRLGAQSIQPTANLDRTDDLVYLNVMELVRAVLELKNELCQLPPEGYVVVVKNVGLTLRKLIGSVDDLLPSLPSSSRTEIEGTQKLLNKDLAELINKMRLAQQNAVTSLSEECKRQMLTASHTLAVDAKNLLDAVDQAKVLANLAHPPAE

Take `CNC(=O)c1ccccc1Nc1nc(Nc2ccc(N3CCOCC3)cc2OC)ncc1Cl` [TAE226]: the side effects entry in data set [1] is “serious side effects such as unexpected inhibition of glucose metabolism, a decrease in blood concentration”.
Turning to `CNC(=O)c1cccc(C)c1Nc1nc(Nc2ccc(N3CCN(C4C5CC6CC(C5)CC4C6)CC3)cc2OC)ncc1C(F)(F)F` (centres unmarked) [Compound 3, 2-((2-((4-(4-(adamantan-2-yl)piperazin-1-yl)-2-methoxyphenyl)amino)-5-(trifluoromethyl)pyrimidin-4-yl)amino)-N,3-dimethylbenzamide], the IC50 at InsR was over 10000 nM; against FAK [2], 154 nM; at FAK [3], 92 nM; against Pyk2, 256 nM.
For `CNC(=O)c1cccc(C)c1Nc1nc(Nc2ccc(NC3CCN([C@H]4C5CC6CC4C[C@@](O)(C6)C5)CC3)cc2OC)ncc1C(F)(F)F` [Compound 8, 2-((2-((4-((1-((cis)-5-hydroxyadamantan-2-yl)piperidin-4-yl)amino)-2-methoxyphenyl)amino)-5-(trifluoromethyl)pyrimidin-4-yl)amino)-N,3-dimethylbenzamide], the IC50 at InsR is over 10000 nM; against FAK [2] it was 53.3 nM; on FAK [3] it was 121 nM.
For the compound `CNC(=O)c1cccc(C)c1Nc1nc(Nc2ccc(N3CCN([C@H]4C5CC6CC4C[C@@](O)(C6)C5)CC3)cc2OC)ncc1C(F)(F)F` [Compound 5, 2-((2-((4-(4-((cis)-5-hydroxyadamantan-2-yl)piperazin-1-yl)-2-methoxyphenyl)amino)-5-(trifluoromethyl)pyrimidin-4-yl)amino)-N,3-dimethylbenzamide], the IC50 against InsR was 4680 nM; against FAK [2], 69.9 nM; on FAK [3], 32 nM.
For the compound `CNC(=O)c1cccc(C)c1Nc1nc(Nc2ccc(OC34CC5CC(C3)C(O)C(C5)C4)cc2OC)ncc1C(F)(F)F` (centres unmarked) [Compound 11, 2-((2-((4-((4-hydroxyadamantan-1-yl)oxy)-2-methoxyphenyl)amino)-5-(trifluoromethyl)pyrimidin-4-yl)amino)-N,3-dimethylbenzamide], the half-inhibitory concentration (IC50) was over 10000 nM on InsR, 65.1 nM on FAK [2], 118 nM on FAK [3] and 231 nM on Pyk2.
The like results for `CNC(=O)c1cccc(C)c1Nc1nc(Nc2ccc(N[C@H]3C4CC5CC3C[C@](O)(C5)C4)cc2OC)ncc1C(F)(F)F` [Compound 1, 2-((2-((4-(((trans)-5-hydroxyadamantan-2-yl)amino)-2-methoxyphenyl)amino)-5-(trifluoromethyl)pyrimidin-4-yl)amino)-N,3-dimethylbenzamide] were, in that order, over 10000 nM, 82.9 nM, 83 nM and 124 nM.
The corresponding values for `CNC(=O)c1cccc(C)c1Nc1nc(Nc2ccc(NC3CCN(C4C5CC6CC(C5)CC4C6)CC3)cc2OC)ncc1C(F)(F)F` (centres unmarked) [Compound 6, 2-((2-((4-((1-(adamantan-2-yl)piperidin-4-yl)amino)-2-methoxyphenyl)amino)-5-(trifluoromethyl)pyrimidin-4-yl)amino)-N,3-dimethylbenzamide] are over 10000 nM, 96.5 nM, 118 nM and 157 nM.
The like results for `CNC(=O)c1cccc(C)c1Nc1nc(Nc2ccc(NC3CCN([C@H]4C5CC6CC4C[C@](O)(C6)C5)CC3)cc2OC)ncc1C(F)(F)F` [Compound 7, 2-((2-((4-((1-((trans)-5-hydroxyadamantan-2-yl)piperidin-4-yl)amino)-2-methoxyphenyl)amino)-5-(trifluoromethyl)pyrimidin-4-yl)amino)-N,3-dimethylbenzamide] were, in that order, 6150 nM, 46.9 nM, 38 nM and 108 nM.
For the compound `CNC(=O)c1cccc(C)c1Nc1nc(Nc2ccc(NC(=O)C34CC5CC(C3)C(N3CCOCC3)C(C5)C4)cc2OC)ncc1C(F)(F)F` (centres unmarked) [Compound 25, N-(3-methoxy-4-((4-((2-methyl-6-(methylcarbamoyl)phenyl)amino)-5-(trifluoromethyl)pyrimidin-2-yl)amino)phenyl)-4-morpholinoadamantan-1-carboxamide], the IC50 is over 10000 nM on InsR, 45.5 nM on FAK [2], 27 nM at FAK [3] and 90.6 nM on Pyk2.
As to `CNC(=O)c1cccc(C)c1Nc1nc(Nc2ccc(NC(=O)[C@]34CC5CC(C3)[C@@H](N3CC[C@H](NC(C)=O)C3)C(C5)C4)cc2OC)ncc1C(F)(F)F` [Compound 27, (trans)-4-((S)-3-acetamidopyrrolidin-1-yl)-N-(3-methoxy-4-((4-((2-methyl-6-(methylcarbamoyl)phenyl)amino)-5-(trifluoromethyl)pyrimidin-2-yl)amino)phenyl) adamantan-1-carboxamide], the IC50 is over 10000 nM on InsR, 39.5 nM against FAK [2], 55 nM at FAK [3] and 81.4 nM against Pyk2.
